Measured values reported in patent US20240197666A1, “DITERPENOID COMPOUNDS THAT ACT ON PROTEIN KINASE C (PKC)” (K-Gen Therapeutics, Inc., priority 2021, published 2024).
Like-named read-outs stand apart in the source and are kept apart here.

Assays:
[1] = tested on: CT26 tumors; assay: CT26 tumor after single dose intratumoral treatment, H&E stain and CD31 IHC; type: in vivo, mouse; conditions: 24h, all dose levels (47.2 μg, 141.6 μg, and 472 μg)
Method: Method. Each 6-8 weeks old female Balb/c mouse was implanted with 3×10^5 CT26 mouse colon cancer cells in one flank for tumor development. When the average tumor volume reached 95 mm^3, 21 mice were randomized into different groups and were treated via a single IT injection (20 uL) according to the group assignment (different dose and treatment duration) in the table below. Tumors were harvested at 1h, 7h, or 24h post IT injection, and then fixed and processed for paraffin embedding.
Paraffin blocks were sectioned into […] sections using Leica RM2235 microtome. One section was stained for Hematoxylin-Eosin (H&E) using Leica ST5020-CV5030 stainer integrated workstation according to the Manufacture's procedure. Photos were taken using Nikon DS-Ri2. Another section was processed for IHC staining with the CD31 antibody (BD, Cat #550274) at 1:10 dilution. The stained slides were scanned using Leica Aperio VERSA 8 and the images were analyzed using HALO image analysis software system (Indica Labs).

[2] = tested on: Namalwa (Lymphoma); assay: Proliferation of Namalwa; type: cell-based
Method: (§1) The diterpenoid compounds were tested in A549, a non-small cell lung cancer cell line harboring a K-Ras activating mutation. Briefly, A549 cells at a density of 1,000 cells/well were seeded in 96-well plates and incubated at 37° C. for 24 hours. A series of different concentrations of compound stocks (500×) were prepared by 3-fold serial dilution in DMSO. These compounds were further diluted in culture media and then added to cells so that the final DMSO concentration was not exceeding 0.25%. After 96 hours of incubation, 50 μL of CellTiter Glo reagent (Promega) was added to each well and luminescence was measured after 10 minutes using EnVision (PerkinElmer). Luminescence from cells treated with DMSO alone was set as Max and % of inhibition was calculated as follows: Inhibition %=(Max-Sample value)/Max×100. Data was analyzed using XL-fit software (ID Business Solutions Ltd.) and IC50, relative IC50, and % of top inhibition was calculated. Some of the compounds in this disclosure were very potent in blocking proliferation of A549 lung cancer cells at low nM range. In addition, potency of inhibiting A549 proliferation correlated well with its binding affinity to PKCs for this series of compounds. In other words, higher affinity binders had stronger inhibitory effects on A549 proliferation. This further support the notion that activation, rather than inhibition, of certain PKC isoforms is required to block proliferation of cancer cells, some of which may harbor K-Ras mutations. This is in sharp contrast to previous literature and common belief that inhibition of PKC is necessary to block cancer cell growth (Kang, 2014, New Journal of Science, 2014:1-36). Data presented here is in agreement with recent findings that many loss-of-function but not gain-of-function mutations of PKC isoforms have been identified in many human cancers (Antal et al., 2015, Cell, 160:489-502).
(§2) The compounds in this disclosure were tested for their potency in blocking proliferation of a few other cancer cells lines, including K-Ras mutant pancreatic cell lines Panc2.13 and KP-4, leukemia cell line HL-60, and lymphoma cell lines Namalwa and Mino. Similar procedures as in Example 67 were followed. Initial cell numbers seeded in 96-well plates were different for different cell lines: 3000 cells/well for Panc2.13; 800-1000 cells/well for KP-4; 5000 cells/well for HL-60; 5000-10000 cells/well for Namalwa and Mino. A ratio of (IC50 of K101)/(IC50 of compound) (data in parenthesis in Table 5) was used to normalize the compound potency from different assay batches to a common comparator K101.

[3] = tested on: HL-60 (Leukemia); assay: Proliferation of HL-60; type: cell-based
Method: as §1, §2

[4] = tested on: A549 cell line; assay: Proliferation of A549 (CellTiter Glo); type: cell-based; conditions: read-out: IC50 μM (A549 Cell Line)
Method: as §1

[5] = tested on: NFκB-driven transcription in HeLa-NFκB luciferase reporter cell line; assay: NFκB luciferase reporter assay; conditions: Homo sapiens, HeLa, 16 h, read-out: NFκB-luc HeLa cells EC50 (μM)
[6] = tested on: Mino (Lymphoma); assay: Proliferation of Mino; type: cell-based
Method: as §1, §2

[7] = target: T1, C1b domain of human PKCθ (Homo sapiens, UniProt Q04759); assay: biochemical; type: binding; conditions: 3H-PDBu competition
T1 construct: Genes encoding C1b domains of human PKCα, δ, ε, θ, and PKD1 (PKCμ) were synthesized; made in house; host or cells: E. coli BL21(DE3)
T1 sequence (Q04759 231-281 limits assumed): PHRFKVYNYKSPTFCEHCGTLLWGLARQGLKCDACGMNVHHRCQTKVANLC
Method: (§3) Compounds described in this disclosure were tested for binding affinity to C1b domain of PKC isoforms. Compound binding affinity to C1b domain of PKC isoforms was derived from competitive binding assay using radioactive tracer ^3H-PDBu and recombinant GST-C1b or full-length of human PKC proteins based on modified procedures from Methods in Molecular Biology, vol.
(§4) Genes encoding C1b domains of human PKCα, δ, ε, θ, and PKD1 (PKCμ) were synthesized and inserted into pGEX-2TK or pGEX-4T1 vectors for expression and production of GST-C1b proteins in E. coli BL21(DE3) via IPTG induction. The target proteins were purified by glutathione sepharose 4B and followed by ion exchange chromatography if needed to achieve purity >70%. Aliquots of the purified proteins were stored at −80 degree for binding assay (storage buffer: 20 mM Tris pH 8.0, 200 mM NaCl, 10% glycerol, 1 mM DTT).
(§5) The plate was incubated at 37° C. on a shaker at 300 rpm for 10 minutes and then put on ice for 20 minutes. […] The bottom of the filter plate was sealed and 50 μL of MicroScint-20 (PerkinElmer) cocktail was added to each well. ^3H-PDBu trapped in each well was counted using PerkinElmer MicroBeta2 Reader. Data were analyzed using GraphPad Prism5 with the model “log(inhibitor) vs. response-variable slope” to fit the IC50, and then IC50 was transformed to Ki using Cheng-Prusoff equation: Ki=IC50/(1+added radio ligand/Kd). Kd is the binding affinity of each protein preparation to ^3H-PDBu, determined experimentally.

[8] = target: T2, C1b domain of human PKCε (Homo sapiens, UniProt Q02156); assay: biochemical; type: binding; conditions: 3H-PDBu competition
T2 construct: Genes encoding C1b domains of human PKCα, δ, ε, θ, and PKD1 (PKCμ) were synthesized; made in house; host or cells: E. coli BL21(DE3)
T2 sequence (Q02156 242-292 limits assumed): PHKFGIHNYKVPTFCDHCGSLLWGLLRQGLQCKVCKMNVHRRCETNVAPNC
Method: as §3, §4, §5

[9] = target: T3, C1b domain of human PKCδ (Homo sapiens, UniProt Q05655); assay: biochemical; type: binding; conditions: 3H-PDBu competition
T3 construct: Genes encoding C1b domains of human PKCα, δ, ε, θ, and PKD1 (PKCμ) were synthesized; made in house; host or cells: E. coli BL21(DE3)
T3 sequence (Q05655 230-280 limits assumed): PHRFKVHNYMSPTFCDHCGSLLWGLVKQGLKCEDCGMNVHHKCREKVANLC
Method: as §3, §4, §5

[10] = target: T4, C1b domain of human PKD1 (PKCμ) (Homo sapiens, UniProt Q15139); assay: Competitive 3H-PDBu binding assay, C1b domain of PKD1 (PKCμ); conditions: 3H-PDBu competition
T4 construct: Genes encoding C1b domains of human PKCα, δ, ε, θ, and PKD1 (PKCμ) were synthesized; made in house; host or cells: E. coli BL21(DE3)
T4 sequence (Q15139 270-320 limits assumed): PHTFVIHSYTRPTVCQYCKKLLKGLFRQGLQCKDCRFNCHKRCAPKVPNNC
Method: as §3, §4, §5

Compound	IC50 ([4]; Homo sapiens, A549, 96 h)	Ki [7]	Ki [8]	Ki [9]	Ki [10]	also measured
CC1=C[C@H]2[C@@]3(O)[C@H](C)C[C@]4(OC(=O)[C@H](N)CCCCCCc5ccccc5)[C@H]([C@@H]3C=C(COC(=O)[C@@H](N)C(C)C)C[C@]2(O)C1=O)C4(C)C						reduction of CD31 density, on average, compared with the vehicle control [1]: > 50%
CC1=C[C@H]2[C@@]3(O)[C@H](C)C[C@]4(OC(=O)[C@H](N)C(C)(C)c5ccc(C(F)(F)F)cc5)[C@H]([C@@H]3C=C(CO)C[C@]2(O)C1=O)C4(C)C	0.2 to 0.6 µM	10 to 30 nM	10 to 30 nM	10 to 30 nM		ratio (IC50 of K101)/(IC50 of compound) Namalwa [2]: 0.49; IC50 ([2]; read-out: IC50 Namalwa (Lymphoma)): 100 to 200 nM; ratio (IC50 of K101)/(IC50 of compound) HL-60 [3]: 2.75; IC50 ([3]; Homo sapiens, HL-60, read-out: IC50 HL-60 (Leukemia)): 100 to 200 nM; EC50 [5]: 0.1 to 0.2 µM; ratio (IC50 of K101)/(IC50 of compound) Mino [6]: 3.88; IC50 ([6]; Homo sapiens, MINO, read-out: IC50 Mino (Lymphoma)): 10 to 30 nM
CC1=C[C@H]2[C@@]3(O)[C@H](C)C[C@]4(OC(=O)[C@H](N)CCCCCCc5ccc(C(F)(F)F)cc5)[C@H]([C@@H]3C=C(CO)C[C@]2(O)C1=O)C4(C)C	0.06 to 0.1 µM		60 to 100 nM		10 to 30 nM	
CC1=C[C@H]2[C@@]3(O)[C@H](C)C[C@]4(OC(=O)[C@H](N)CCCCCCCCc5ccccc5)[C@H]([C@@H]3C=C(CO)C[C@]2(O)C1=O)C4(C)C	0.01 to 0.03 µM	10 to 30 nM	10 to 30 nM	10 to 30 nM		
CC1=C[C@H]2[C@@]3(O)[C@H](C)C[C@]4(OC(=O)[C@H](N)CCCCCCc5ccc(C(F)F)cc5)[C@H]([C@@H]3C=C(CO)C[C@]2(O)C1=O)C4(C)C	0.1 to 0.2 µM			10 to 30 nM	10 to 30 nM	
CC1=C[C@H]2[C@@]3(O)[C@H](C)C[C@]4(OC(=O)[C@@H](N)CCCCCCc5ccc(C(F)F)cc5)[C@H]([C@@H]3C=C(CO)C[C@]2(O)C1=O)C4(C)C	0.1 to 0.2 µM	10 to 30 nM		10 to 30 nM		
CCCCCCCCCCCCCC(=O)O[C@@H]1[C@@H](C)[C@@]2(O)[C@@H](C=C(CO)C[C@]3(O)C(=O)C(C)=C[C@@H]23)[C@@H]2C(C)(C)[C@]12OC(C)=O [Compound K103, 12-O-Tetradecanoylphorbol-13-acetate, reference compound]		< 5 nM	< 5 nM	< 5 nM	< 5 nM	IC50 ([4]; 96 hours, CellTiter Glo): < 0.01 µM
